# Test results: ChEMBL document CHEMBL1155139 (Antimicrob Agents Chemother, 2007)
# What was measured:
# [1] = system: Plasmodium falciparum; experiment: Antimalarial activity against Plasmodium falciparum FcB1; format: functional, organism-based; details: FcB1/Columbia
# [2] = system: Plasmodium falciparum; experiment: Antimalarial activity against Plasmodium falciparum K1; format: functional, organism-based
# [3] = system: Plasmodium berghei; experiment: Antimalarial activity as reduced parasitaemia at day 3 against Plasmodium berghei infected MORO mice (Mus musculus) at 100 mg/kg subcutaneous dose; format: functional; design: scale not given: the % may be the effect or the level left
# [4] = system: Plasmodium falciparum; experiment: Antimalarial activity against Plasmodium falciparum NF54; format: functional, organism-based
# [5] = system: Plasmodium berghei; experiment: Antimalarial activity as reduced parasitaemia at day 3 against Plasmodium berghei infected MORO mice (Mus musculus) at 100 mg/kg peroral dose; format: functional; design: scale not given: the % may be the effect or the level left; details: route oral
SMILES,IC50 [1] [µg/mL],IC50 [2] [µg/mL],Activity [3] [%],IC50 [4] [µg/mL],Activity [5] [%]
C1CCCC2(CC1)OOC1(CCCCCC1)OO2,0.021,0.014,56,0.011,60
C1CCC2(CC1)COC1(CCCCC1)OC2,,> 10,,> 10,
CCCCC1(CCCC)OOC(CCCC)(CCCC)OOC(CCCC)(CCCC)OO1,,> 10,,> 10,
CCCC1(CCC)OOC(CCC)(CCC)OO1,0.048,0.04,0,0.023,21
CCCCC1(CCCC)OOC(CCCC)(CCCC)OO1,,0.071,5,0.088,47
C[C@@H]1CC[C@H]2[C@@H](C)C(=O)O[C@@H]3O[C@@]4(C)CC[C@@H]1[C@]32OO4 [ARTEMISININ],,,99.99,0.0034,98
C[C@@H]1CCCCC12OOC1(CCCC[C@@H]1C)OO2 (stereo partly drawn) [WR-148999],,,99.99,,99.7
